Experimental data taken from patent US7601728B2, “Bicyclic pyrrole derivatives” (Dainippon Sumitomo Pharma Co., Ltd., priority 2004, dated 2009).
Structures can show the parent of a compound that is named as a salt.

Target: T1, Human DPP IV (Homo sapiens, UniProt P27487)
T1 construct: Human serum containing DPP-IV enzyme was diluted finally 9- to 20-fold with assay buffer; from tissue; host or cells: human serum
Assay: In Vitro DPP-IV Inhibitory Effect Measurement Test
Type: biochemical
Settings: human serum containing DPP-IV enzyme; substrate Glycyl-L-Proline 4-Methyl-Coumaryl-7-Amide 10 to 100 μM; room temperature; fluorescence 360/460 nm; read-out: Human DPP IV inhibiting activity IC50
Description: In Vitro DPP-IV Inhibitory Effect Measurement Test
Human serum containing DPP-IV enzyme was diluted finally 9- to 20-fold with assay buffer and added to a microassay plate. Each of solutions of each test compound having various concentrations was added thereto, followed by adding thereto a substrate (Glycyl-L-Proline 4-Methyl-Coumaryl-7-Amide, Peptide Laboratories Co., Ltd.) to a final concentration of 10 to 100 μM, and the reaction was carried out at room temperature. Acetic acid was added thereto to a final concentration of 0.5% to terminate the reaction, and the intensity of fluorescence at an excitation wavelength of 360 nm and a measuring wavelength of 460 nm was measured by the use of a fluorescent plate reader.

T1 sequence (P27487 39-766 limits assumed): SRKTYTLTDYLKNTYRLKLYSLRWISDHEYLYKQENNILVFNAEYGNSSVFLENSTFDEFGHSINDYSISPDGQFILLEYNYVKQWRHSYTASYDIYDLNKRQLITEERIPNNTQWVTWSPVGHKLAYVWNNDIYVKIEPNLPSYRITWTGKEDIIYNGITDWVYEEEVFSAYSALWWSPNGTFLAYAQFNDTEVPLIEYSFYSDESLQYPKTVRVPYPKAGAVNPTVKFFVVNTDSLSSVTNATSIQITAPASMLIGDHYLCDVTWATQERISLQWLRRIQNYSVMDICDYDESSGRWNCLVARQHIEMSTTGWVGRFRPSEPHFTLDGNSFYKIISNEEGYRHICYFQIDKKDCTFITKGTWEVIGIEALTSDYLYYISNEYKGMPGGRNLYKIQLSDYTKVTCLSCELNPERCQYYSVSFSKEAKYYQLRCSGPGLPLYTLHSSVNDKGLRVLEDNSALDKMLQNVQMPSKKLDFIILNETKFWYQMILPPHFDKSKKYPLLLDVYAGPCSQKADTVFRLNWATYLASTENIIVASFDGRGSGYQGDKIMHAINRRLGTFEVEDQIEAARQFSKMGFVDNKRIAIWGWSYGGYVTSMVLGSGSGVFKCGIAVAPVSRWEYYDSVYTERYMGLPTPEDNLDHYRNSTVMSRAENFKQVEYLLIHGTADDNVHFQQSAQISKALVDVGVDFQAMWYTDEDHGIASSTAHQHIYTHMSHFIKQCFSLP

| SMILES | IC50 [nM] |
| --- | --- |
| CCOc1cccc(Oc2nc3c(C#N)c(N4CCC[C@@H](N)C4)n(Cc4ccccc4Cl)c3c(=O)n2C)c1 [Example 1, 6-[(3R)-3-Aminopiperidin-1-yl]-5-(2-chlorobenzyl)-2-(3-ethoxyphenoxy)-3-methyl-4-oxo-4,5-dihydro-3H-pyrrolo[3,2-d]pyrimidine-7-carbonitrile hydrochloride] | 76 |
| Cn1c(=O)c2c(c(C#N)c(N3CCC[C@@H](N)C3)n2Cc2ccccc2Cl)n(C)c1=O [Example 2, 6-[(3R)-3-Aminopiperidin-1-yl]-5-(2-chlorobenzyl)-1,3-dimethyl-2,4-dioxo-2,3,4,5-tetrahydro-1H-pyrrolo[3,2-d]pyrimidine-7-carbonitrile hydrochloride] | 21 |
| Cn1c(O)nc2c(C#N)c(N3CCC[C@@H](N)C3)n(Cc3ccccc3Cl)c2c1=O [Example 3, 6-[(3R)-3-Aminopiperidin-1-yl]-5-(2-chlorobenzyl)-2-hydroxy-3-methyl-4-oxo-4,5-dihydro-3H-pyrrolo[3,2-d]pyrimidine-7-carbonitrile hydrochloride] | 26 |
| Cn1c(S(C)(=O)=O)nc2c(C#N)c(N3CCC[C@@H](N)C3)n(Cc3ccccc3Cl)c2c1=O [Example 4, 6-[(3R)-3-Aminopiperidin-1-yl]-5-(2-chlorobenzyl)-3-methyl-2-(methylsulfonyl)-4-oxo-4,5-dihydro-3H-pyrrolo[3,2-d]pyrimidine-7-carbonitrile hydrochloride] | 28 |
| Cn1c(=O)c2c(cc(N3CCC[C@@H](N)C3)n2Cc2ccccc2Cl)n(C)c1=O [Example 5, 6-(3-Aminopiperidin-1-yl)-5-(2-chlorobenzyl)-1,3-dimethyl-1H-pyrrolo[3,2-d]pyrimidine-2,4(3H,5H)-dione hydrochloride] | 15 |
| Cn1c(=O)c2c(cc(N3CCC[C@@H](N)C3)n2Cc2cc(F)ccc2Cl)n(C)c1=O [Example 6, 6-(3-Aminopiperidin-1-yl)-5-(2-chloro-5-fluorobenzyl)-1,3-dimethyl-1H-pyrrolo[3,2-d]pyrimidine-2,4(3H,5H)-dione hydrochloride] | 1.9 |
| Cn1c(Oc2ccccc2C(N)=O)nc2c(C#N)c(N3CCC[C@@H](N)C3)n(Cc3ccccc3Cl)c2c1=O [Example 7, 2-{[6-(3-Aminopiperidin-1-yl)-5-(2-chlorobenzyl)-7-cyano-3-methyl-4-oxo-4,5-dihydro-3H-pyrrolo[3,2-d]pyrimidin-2-yl]oxy}benzamide hydrochloride] | 60 |
| Cn1c(=O)c2c(cc(N3CCC[C@@H](N)C3)n2Cc2ccccc2C#N)n(C)c1=O [Example 8] | 7.4 |
| CC#CCn1c(N2CCC[C@@H](N)C2)cc2c1c(=O)n(C)c(=O)n2C [Example 14] | 55 |
| Cn1c(=O)n(Cc2cc3ccccc3cn2)c(=O)c2c1cc(N1CCC[C@@H](N)C1)n2Cc1cc(F)ccc1Cl [Example 18] | 12 |
| Cn1c(=O)n(CC(=O)c2ccccc2)c(=O)c2c1cc(N1CCC[C@@H](N)C1)n2Cc1cc(F)ccc1Cl [Example 19] | 7.1 |
| Cn1c(=O)[nH]c(=O)c2c1cc(N1CCC[C@@H](N)C1)n2Cc1cc(F)ccc1Cl [Example 20] | 4.3 |
| CCOC(=O)c1c(N2CCC[C@@H](N)C2)n(Cc2ccccc2Cl)c2c(=O)n(C)c(=O)n(C)c12 [Example 24] | 44 |
| CN(C)C(=O)c1c(N2CCC[C@@H](N)C2)n(Cc2ccccc2Cl)c2c(=O)n(C)c(=O)n(C)c12 [Example 25] | 7.6 |
| Cn1c(=O)c2c(c(C(=O)N3CCCC3)c(N3CCC[C@@H](N)C3)n2Cc2ccccc2Cl)n(C)c1=O [Example 27] | 9.8 |
| Cn1c(=O)c2c(c(C(=O)NCC(O)CO)c(N3CCC[C@@H](N)C3)n2Cc2ccccc2Cl)n(C)c1=O (stereo partly shown) [Example 32] | 7.5 |
| Cn1c(=O)c2c(c(C(=O)N3CCC(O)CC3)c(N3CCC[C@@H](N)C3)n2Cc2ccccc2Cl)n(C)c1=O [Example 33] | 12 |
| Cn1c(=O)c2c(c(C(=O)NC3CCC3)c(N3CCC[C@@H](N)C3)n2Cc2cc(F)ccc2Cl)n(C)c1=O [Example 40] | 6.8 |
| COCCNC(=O)c1c(N2CCC[C@@H](N)C2)n(Cc2cc(F)ccc2Cl)c2c(=O)n(C)c(=O)n(C)c12 [Example 41] | 4.1 |
| Cn1c(=O)c2c(c(C(=O)NCC(F)(F)F)c(N3CCC[C@@H](N)C3)n2Cc2cc(F)ccc2Cl)n(C)c1=O [Example 42] | 5.7 |
| Cn1c(=O)c2c(c(C(=O)N3CCOCC3)c(N3CCC[C@@H](N)C3)n2Cc2cc(F)ccc2Cl)n(C)c1=O [Example 44] | 9 |
| COCc1c(N2CCC[C@@H](N)C2)n(Cc2ccccc2Cl)c2c(=O)n(C)c(=O)n(C)c12 [Example 56] | 31 |
| CC(=O)c1c(N2CCC[C@@H](N)C2)n(Cc2ccccc2Cl)c2c(=O)n(C)c(=O)n(C)c12 [Example 61] | 85 |
| COc1ccc(-c2c(N3CCC[C@@H](N)C3)n(Cc3ccccc3Cl)c3c(=O)n(C)c(=O)n(C)c23)cc1 [Example 62] | 56 |
| Cn1cnc2cc(N3CCC[C@@H](N)C3)n(Cc3cc(F)ccc3Cl)c2c1=O [Example 64] | 13 |
| Cn1cnc2c(C(=O)N3CCOCC3)c(N3CCC[C@@H](N)C3)n(Cc3cc(F)ccc3Cl)c2c1=O [Example 66] | 5.5 |
| Cn1c(=O)c2c(c(C#N)c(N3CCC[C@H](N)C3)n2Cc2cc(F)ccc2Cl)n(C)c1=O [Example 70, 6-[(3S)-3-Aminopiperidin-1-yl]-5-(2-chloro-5-fluorobenzyl)-1,3-dimethyl-2,4-dioxo-2,3,4,5-tetrahydro-1H-pyrrolo[3,2-d]pyrimidine-7-carbonitrile hydrochloride] | 3800 |
| CCOC(=O)c1c(N)c(C#N)c(N2CCC[C@@H](N)C2)n1Cc1ccccc1Cl [Example 72, Ethyl 3-amino-5-[(3R)-3-aminopiperidin-1-yl]-1-(2-chlorobenzyl)-4-cyano-1H-pyrrole-2-carboxylate hydrochloride] | 1200 |
